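Cells were grown in 96-well plates and exposed to each compound for 48 hours at five concentrations; endpoints were interpolated linearly between bracketing concentrations, or set to the highest concentration if not reached. At the GI50, growth is halved.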 Calls of active or inactive are those of the source. No stated cut-off is given here; in the data, active = GI50 up to about 1.1 µM and inactive = higher.
Tests used:
Test in all cases: NCI-60 cell line screen, 48 h
NCI-H226 = tested on: NCI-H226
KM12 = tested on: KM12
LOX IMVI = tested on: LOX IMVI
MDA-MB-435 = tested on: MDA-MB-435
HCT-116 = tested on: HCT-116
SN12C = tested on: SN12C
SK-OV-3 = tested on: SK-OV-3
U-251 = tested on: U-251
EKVX = tested on: EKVX
HL-60 = tested on: HL-60
SK-MEL-5 = tested on: SK-MEL-5
UO-31 = tested on: UO-31
SNB-75 = tested on: SNB-75
SF-539 = tested on: SF-539
SF-268 = tested on: SF-268
A549 = tested on: A549
MDA-N = tested on: MDA-N
SK-MEL-2 = tested on: SK-MEL-2
IGROV-1 = tested on: IGROV-1
UACC-62 = tested on: UACC-62

Structure (SMILES)	GI50 (NCI-H226)	GI50 (KM12)	GI50 (LOX IMVI)	GI50 (MDA-MB-435)	GI50 (HCT-116)	GI50 (SN12C)	GI50 (SK-OV-3)	GI50 (U-251)	GI50 (EKVX)	GI50 (HL-60)	GI50 (SK-MEL-5)	GI50 (UO-31)	GI50 (SNB-75)	GI50 (SF-539)	GI50 (SF-268)	GI50 (A549)	GI50 (MDA-N)	GI50 (SK-MEL-2)	GI50 (IGROV-1)	GI50 (UACC-62)
O=c1c2ccccc2n2nnc3ccc(NCCNCCO)c1c32	2290 nM (inactive)	1660 nM (inactive)	1180 nM (inactive)	1340 nM (inactive)	1290 nM (inactive)	1430 nM (inactive)	2080 nM (inactive)	944 nM (active)	2080 nM (inactive)	1710 nM (inactive)	1530 nM (inactive)	863 nM (active)	1420 nM (inactive)	3780 nM (inactive)	1710 nM (inactive)	1160 nM (inactive)	1690 nM (inactive)	3190 nM (inactive)	2470 nM (inactive)	2420 nM (inactive)
CCC1=C(CC2NCCc3ccccc32)CC2c3cc(OC)c(OC)cc3CCN2C1 (stereo not given)	757 nM (active)	443 nM (active)	359 nM (active)	327 nM (active)	307 nM (active)	500 nM (active)	1070 nM (active)	550 nM (active)	305 nM (active)	847 nM (active)	585 nM (active)	736 nM (active)	531 nM (active)	578 nM (active)	719 nM (active)	343 nM (active)	452 nM (active)	603 nM (active)	693 nM (active)	1290 nM (inactive)
Cc1cc(C)c(S(=O)(=O)N(CCCN)OCCCON(CCCN)S(=O)(=O)c2c(C)cc(C)cc2C)c(C)c1	2200 nM (inactive)	1900 nM (inactive)	1870 nM (inactive)	2030 nM (inactive)	1750 nM (inactive)	3910 nM (inactive)	1820 nM (inactive)	1640 nM (inactive)	5920 nM (inactive)	1910 nM (inactive)	4550 nM (inactive)	16700 nM (inactive)	1860 nM (inactive)	2170 nM (inactive)	1420 nM (inactive)	1770 nM (inactive)	1780 nM (inactive)	1790 nM (inactive)	1980 nM (inactive)	2520 nM (inactive)
Clc1cccc(Cl)c1C1SCc2nc3ncccc3n21 (stereo not given)	66800 nM (inactive)	52800 nM (inactive)	> 100000 nM (inactive)	39400 nM (inactive)	94600 nM (inactive)	> 100000 nM (inactive)	> 100000 nM (inactive)	> 100000 nM (inactive)	> 100000 nM (inactive)	60700 nM (inactive)	65800 nM (inactive)	> 100000 nM (inactive)	40600 nM (inactive)	> 100000 nM (inactive)	> 100000 nM (inactive)	> 100000 nM (inactive)	62800 nM (inactive)	> 100000 nM (inactive)	> 100000 nM (inactive)	> 100000 nM (inactive)
CCCCCCCCCCc1c2nc(c(CCCCCCCCCC)c3ccc([nH]3)c(CCCCCCCCCC)c3nc(c(CCCCCCCCCC)c4ccc1[nH]4)C=C3)C=C2	> 100000 nM (inactive)	> 100000 nM (inactive)	> 100000 nM (inactive)	> 100000 nM (inactive)	> 100000 nM (inactive)	> 100000 nM (inactive)	> 100000 nM (inactive)	> 100000 nM (inactive)	> 100000 nM (inactive)	> 100000 nM (inactive)	> 100000 nM (inactive)	> 100000 nM (inactive)	> 100000 nM (inactive)	> 100000 nM (inactive)	> 100000 nM (inactive)	> 100000 nM (inactive)	> 100000 nM (inactive)	> 100000 nM (inactive)	> 100000 nM (inactive)	> 100000 nM (inactive)
